# Reference: ChEMBL document CHEMBL3045117, “Synthesis, crystal structures, insecticidal activities, and structure--activity relationships of novel N'-tert-Butyl-N'-substituted-benzoyl-N-[di(octa)hydro]benzofuran{(2,3-dihydro)benzo[1,3]([1,4])dioxine}carbohydrazide derivatives” (2011)
# Test system: Spodoptera exigua
# Experiment: Stomach toxicity against third-instar Spodoptera exigua in compound treated fresh cabbage leaves assessed as insecticidal activity at 100 mg/L measured after 3 days by leaf-dip method
# Type: functional
row,SMILES,Activity [%]
1,Cc1cc(C)cc(C(=O)N(NC(=O)c2ccc3cc(C)oc3c2)C(C)(C)C)c1,100
2,Cc1cc(C)cc(C(=O)N(NC(=O)c2ccc3c(c2)OC(C)C3)C(C)(C)C)c1 (stereo not given),100
3,Cc1cc(C)cc(C(=O)N(NC(=O)c2cccc3c2CC(C)O3)C(C)(C)C)c1 (stereo not given),100
4,Cc1cc(C)cc(C(=O)N(NC(=O)c2cccc3c2OCO3)C(C)(C)C)c1,80

# Test system: Spodoptera exigua
# Experiment: Stomach toxicity against third-instar Spodoptera exigua in compound treated fresh cabbage leaves assessed as insecticidal activity at 50 mg/L measured after 3 days by leaf-dip method
# Type: functional
row,SMILES,Activity [%]
1,Cc1cc(C)cc(C(=O)N(NC(=O)c2ccc3cc(C)oc3c2)C(C)(C)C)c1,100
2,Cc1cc(C)cc(C(=O)N(NC(=O)c2ccc3c(c2)OC(C)C3)C(C)(C)C)c1 (stereo not given),100
3,Cc1cc(C)cc(C(=O)N(NC(=O)c2cccc3c2CC(C)O3)C(C)(C)C)c1 (stereo not given),100

# Test system: Plutella xylostella
# Experiment: Stomach toxicity against third-instar Plutella xylostella (diamondback moth) in compound treated fresh cabbage leaves assessed as insecticidal activity at 200 mg/L measured after 3 days by leaf-dip method
# Type: functional
row,SMILES,Activity [%]
1,Cc1cc(C)cc(C(=O)N(NC(=O)c2ccc3cc(C)oc3c2)C(C)(C)C)c1,100
2,Cc1cc(C)cc(C(=O)N(NC(=O)c2ccc3c(c2)OC(C)C3)C(C)(C)C)c1 (stereo not given),80
3,Cc1cc(C)cc(C(=O)N(NC(=O)c2cccc3c2CC(C)O3)C(C)(C)C)c1 (stereo not given),100
4,Cc1cc(C)cc(C(=O)N(NC(=O)c2cccc3c2OCO3)C(C)(C)C)c1,0

# Test system: Plutella xylostella
# Experiment: Stomach toxicity against third-instar Plutella xylostella (diamondback moth) in compound treated fresh cabbage leaves assessed as insecticidal activity at 50 mg/L measured after 3 days by leaf-dip method
# Type: functional
row,SMILES,Activity [%]
1,Cc1cc(C)cc(C(=O)N(NC(=O)c2ccc3cc(C)oc3c2)C(C)(C)C)c1,70
2,Cc1cc(C)cc(C(=O)N(NC(=O)c2cccc3c2CC(C)O3)C(C)(C)C)c1 (stereo not given),50

# Test system: Mythimna separata
# Experiment: Stomach toxicity against third-instar Mythimna separata (Oriental armyworm) in compound treated fresh corn leaves assessed as insecticidal activity at 50 mg/L measured after 4 days by leaf-dip method
# Type: functional
row,SMILES,Activity [%]
1,Cc1cc(C)cc(C(=O)N(NC(=O)c2ccc3cc(C)oc3c2)C(C)(C)C)c1,100
2,Cc1cc(C)cc(C(=O)N(NC(=O)c2ccc3c(c2)OC(C)C3)C(C)(C)C)c1 (stereo not given),100
3,Cc1cc(C)cc(C(=O)N(NC(=O)c2cccc3c2CC(C)O3)C(C)(C)C)c1 (stereo not given),100
4,Cc1cc(C)cc(C(=O)N(NC(=O)c2cccc3c2OCO3)C(C)(C)C)c1,100

# Test system: Spodoptera exigua
# Experiment: Stomach toxicity against third-instar Spodoptera exigua in compound treated fresh cabbage leaves assessed as insecticidal activity at 10 mg/L measured after 3 days by leaf-dip method
# Type: functional
row,SMILES,Activity [%]
1,Cc1cc(C)cc(C(=O)N(NC(=O)c2ccc3cc(C)oc3c2)C(C)(C)C)c1,90
2,Cc1cc(C)cc(C(=O)N(NC(=O)c2ccc3c(c2)OC(C)C3)C(C)(C)C)c1 (stereo not given),90
3,Cc1cc(C)cc(C(=O)N(NC(=O)c2cccc3c2CC(C)O3)C(C)(C)C)c1 (stereo not given),80

# Test system: Mythimna separata
# Experiment: Stomach toxicity against third-instar Mythimna separata (Oriental armyworm) in compound treated fresh corn leaves assessed as insecticidal activity at 100 mg/L measured after 4 days by leaf-dip method
# Type: functional
row,SMILES,Activity [%]
1,Cc1cc(C)cc(C(=O)N(NC(=O)c2ccc3cc(C)oc3c2)C(C)(C)C)c1,100
2,Cc1cc(C)cc(C(=O)N(NC(=O)c2ccc3c(c2)OC(C)C3)C(C)(C)C)c1 (stereo not given),100
3,Cc1cc(C)cc(C(=O)N(NC(=O)c2cccc3c2CC(C)O3)C(C)(C)C)c1 (stereo not given),100
4,Cc1cc(C)cc(C(=O)N(NC(=O)c2cccc3c2OCO3)C(C)(C)C)c1,100

# Test system: Plutella xylostella
# Experiment: Stomach toxicity against third-instar Plutella xylostella (diamondback moth) in compound treated fresh cabbage leaves assessed as insecticidal activity at 100 mg/L measured after 3 days by leaf-dip method
# Type: functional
row,SMILES,Activity [%]
1,Cc1cc(C)cc(C(=O)N(NC(=O)c2ccc3cc(C)oc3c2)C(C)(C)C)c1,100
2,Cc1cc(C)cc(C(=O)N(NC(=O)c2cccc3c2CC(C)O3)C(C)(C)C)c1 (stereo not given),100

# Test system: Spodoptera exigua
# Experiment: Stomach toxicity against third-instar Spodoptera exigua in compound treated fresh cabbage leaves assessed as insecticidal activity at 200 mg/L measured after 3 days by leaf-dip method
# Type: functional
row,SMILES,Activity [%]
1,Cc1cc(C)cc(C(=O)N(NC(=O)c2ccc3cc(C)oc3c2)C(C)(C)C)c1,100
2,Cc1cc(C)cc(C(=O)N(NC(=O)c2ccc3c(c2)OC(C)C3)C(C)(C)C)c1 (stereo not given),100
3,Cc1cc(C)cc(C(=O)N(NC(=O)c2cccc3c2CC(C)O3)C(C)(C)C)c1 (stereo not given),100
4,Cc1cc(C)cc(C(=O)N(NC(=O)c2cccc3c2OCO3)C(C)(C)C)c1,100

# Test system: Mythimna separata
# Experiment: Stomach toxicity against third-instar Mythimna separata (Oriental armyworm) in compound treated fresh corn leaves assessed as insecticidal activity at 25 mg/L measured after 4 days by leaf-dip method
# Type: functional
row,SMILES,Activity [%]
1,Cc1cc(C)cc(C(=O)N(NC(=O)c2ccc3cc(C)oc3c2)C(C)(C)C)c1,100
2,Cc1cc(C)cc(C(=O)N(NC(=O)c2ccc3c(c2)OC(C)C3)C(C)(C)C)c1 (stereo not given),100
3,Cc1cc(C)cc(C(=O)N(NC(=O)c2cccc3c2CC(C)O3)C(C)(C)C)c1 (stereo not given),100
4,Cc1cc(C)cc(C(=O)N(NC(=O)c2cccc3c2OCO3)C(C)(C)C)c1,30

# Test system: Mythimna separata
# Experiment: Stomach toxicity against third-instar Mythimna separata (Oriental armyworm) in compound treated fresh corn leaves assessed as insecticidal activity at 200 mg/L measured after 4 days by leaf-dip method
# Type: functional
row,SMILES,Activity [%]
1,Cc1cc(C)cc(C(=O)N(NC(=O)c2ccc3cc(C)oc3c2)C(C)(C)C)c1,100
2,Cc1cc(C)cc(C(=O)N(NC(=O)c2ccc3c(c2)OC(C)C3)C(C)(C)C)c1 (stereo not given),100
3,Cc1cc(C)cc(C(=O)N(NC(=O)c2cccc3c2CC(C)O3)C(C)(C)C)c1 (stereo not given),100
4,Cc1cc(C)cc(C(=O)N(NC(=O)c2cccc3c2OCO3)C(C)(C)C)c1,100

# Test system: Ostrinia nubilalis
# Experiment: Stomach toxicity against third-instar Ostrinia nubilalis (European corn borer) in compound treated fresh corn leaves assessed as insecticidal activity at 200 mg/L measured after 4 days by leaf-dip method
# Type: functional
row,SMILES,Activity [%]
1,Cc1cc(C)cc(C(=O)N(NC(=O)c2ccc3cc(C)oc3c2)C(C)(C)C)c1,40
2,Cc1cc(C)cc(C(=O)N(NC(=O)c2ccc3c(c2)OC(C)C3)C(C)(C)C)c1 (stereo not given),60
3,Cc1cc(C)cc(C(=O)N(NC(=O)c2cccc3c2CC(C)O3)C(C)(C)C)c1 (stereo not given),70
4,Cc1cc(C)cc(C(=O)N(NC(=O)c2cccc3c2OCO3)C(C)(C)C)c1,30

# Test system: Mythimna separata
# Experiment: Stomach toxicity against third-instar Mythimna separata (Oriental armyworm) in compound treated fresh corn leaves assessed as insecticidal activity at 10 mg/L measured after 4 days by leaf-dip method
# Type: functional
row,SMILES,Activity [%]
1,Cc1cc(C)cc(C(=O)N(NC(=O)c2ccc3cc(C)oc3c2)C(C)(C)C)c1,50
2,Cc1cc(C)cc(C(=O)N(NC(=O)c2ccc3c(c2)OC(C)C3)C(C)(C)C)c1 (stereo not given),70
3,Cc1cc(C)cc(C(=O)N(NC(=O)c2cccc3c2CC(C)O3)C(C)(C)C)c1 (stereo not given),60
